From publication PMC10525135, “Computationally Designed AMPs with Antibacterial and Antibiofilm Activity against MDR Acinetobacter baumannii” (Antibiotics, 2023)
Residues, ends and D or L forms follow the SMILES beside them.

What was measured:
[1] = test system: A. baumannii BAA-1710 and -1794 biofilm; experiment: Antibiofilm screening at 100 µg/mL (crystal violet); type: cell-based, Acinetobacter baumannii; settings: n = 3
Experimental: As the first step, antibacterial screening (n = 3) was performed on MDR strains of A. baumannii listed in Table 5, with each peptide at a concentration of 100 μg/mL in MHB. […] Growth was measured spectrophotometrically at OD600 nm at 20–24 h, following the CLSI protocol for A. baumannii incubation for MIC [99]. Similarly, biofilm formation was first established for tested A. baumannii strains using our crystal violet-staining protocol described below. Then, antibiofilm screening (n = 3) of each peptide against biofilm formation of A. baumannii was determined at 100 μg/mL. Peptides that were active in this screen were then analyzed in more detail as described below. Positive controls were used, such as LL-37 and polymyxin B [18, 66, 67]. Samples containing only the medium were considered as the sterility control whereas samples containing only bacteria served as the growth control.
The MBIC assay measures the lowest concentration of a compound that inhibits the biofilm formation of an organism. […] After the incubation of bacteria with AMPs, OD600 nm was measured for approximate bacterial growth. […] After that, 200 µL of 33% glacial acetic acid was added to resolubilize the stain, and biofilm mass was measured by a spectrophotometric reading at OD590. […]

[2] = test system: A. baumannii BAA-1800 biofilm; settings: A. baumannii BAA-1800, TSB, 24 h 37 °C
Experimental: The MBIC assay measures the lowest concentration of a compound that inhibits the biofilm formation of an organism. A series of decreasing peptide concentrations starting from 64 μg/mL to 0.25 μg/mL (100 µL) were incubated with 1 × 10^5 CFU of A. baumannii in 100 µL of Tryptic Soy broth (TSB) in a polystyrene 96-well plate (Falcon 353072, Corning, NY, USA) for 24 h at 37 °C to assess biofilm formation inhibition, as described previously with minor modifications. After the incubation of bacteria with AMPs, OD600 nm was measured for approximate bacterial growth. Media were carefully removed, and wells (n = 3) were rinsed with tap water. Plates were heat-fixed at 70 °C for 1 h, and 200 µL of 0.1% crystal violet diluted in deionized water were added to wells and allowed to incubate for 15 min. Excess stain was rinsed off with tap water, and the plates were air-dried. After that, 200 µL of 33% glacial acetic acid was added to resolubilize the stain, and biofilm mass was measured by a spectrophotometric reading at OD590. Bacteria alone (no treatment) served as the 100% biofilm control, and media alone and media with a peptide/drug were used as the sterility control and the 0% biofilm control.

Galleria mellonella = experiment: Waxworm toxicity testing; settings: 10 µg in 10 µL PBS injected per worm, 10 worms per group, 72 h
Experimental: Galleria mellonella were obtained from Vanderhorst Wholesale (Saint Mary’s, OH, USA), and 10 worms with equal weights between 200 to 300 mg were assigned to each group. […] The experiment was performed twice, and the results were analyzed by the Mantel–Cox test.

Q: Which results are given for CC[C@H](C)CCCCC(=O)N[C@@H](CCN)C(=O)N[C@H](C(=O)N[C@@H](CCN)C(=O)N[C@H]1CCNC(=O)[C@H]([C@@H](C)O)NC(=O)[C@H](CCN)NC(=O)[C@H](CCN)NC(=O)[C@H](CC(C)C)NC(=O)[C@@H](Cc2ccccc2)NC(=O)[C@H](CCN)NC1=O)[C@@H](C)O [Polymyxin B] (HELM PEPTIDE1{[CC[C@H](C)CCCCC(=O)[*:2]].[Dab].T.[Dab].[Dab].[Dab].[dF].L.[Dab].[Dab].T}$PEPTIDE1,PEPTIDE1,5:R3-11:R2$$$V2.0; N-terminus assumed; bridges inferred)?
A: Biofilm inhibition in screen [1]: complete biofilm inhibition; MBEC50 ([2]; crystal violet): 2 µg/mL; MBIC100 ([2]; polystyrene plate, crystal violet OD590, n = 3): 1 µg/mL; Survival of worms (Galleria mellonella): 80%
